Source: patent US20090209548A1, “FORMULATION FOR STIMULATING HAIR GROWTH” (Pfizer Inc, priority 2004, published 2009)

Assays:
[1] = In-vitro human cadaver skin permeation, Franz diffusion cell; format: in vitro ADME; conditions: for Mean Percentage of Radioactivity Recovered at 24 Hours, Dermis / Mean Percentage of Radioactivity Recovered at 24 Hours, Epidermis / Mean Percentage of Radioactivity Recovered at 24 Hours, Receptor / Mean Percentage of Radioactivity Recovered at 24 Hours, Surface / Mean Percentage of Radioactivity Recovered at 24 Hours, Total: Compound 0.96% w/v
Description: Experimentally, the flux can be determined by measuring the amount of drug permeation into the receptor compartment of a Franz cell over time. The cumulative drug permeated per cm^2 is than plotted against time and the steady state permeation rate (flux, J) is calculated from the slope of the linear portion of the curve according to Fick's 1st law of diffusion.
In Examples 2-5 infra, the cumulative amount of Compound permeated through the skin as amount per surface area (μg/cm^2) was plotted against time (hours). Flux (μg/cm^2/hr) was determined by calculating the slope of the linear portion of the permeation profile. Drawing III depicts such a calculation. Typical variance in measured flux of 10 replicate samples is about 30-50%. However, if the formulation provides low flux of the Compound, indicating poor permeation through the skin, the variance could be much higher than the typical 30-50%.
This methodology utilizes a device known as the Franz Diffusion Cell. A typical device is depicted in Drawing II. The test is carried out using the following general methodology. A sample of human cadaver skin is inserted in to the area labeled as skin. The skin should be oriented so that the stratum corneum is facing the Donor Compartment and the dermis is facing the Receptor Compartment. The Receptor Compartment will be filled with a predefined solution (based on solubility of test agent). A dose of test agent, in a defined volume, is inserted into the Donor Compartment so that it may come in contact with the skin sample and potentially diffuse thru the skin into the Receptor Compartment. Samples of solution are then withdrawn from Receptor Compartment at defined time points and the concentration of test agent is determined. The amount of test agent permeated per cm^2 of skin is plotted versus time and the flux of the test agent is calculated as described above. The reader's attention is directed to Example 2, which provides a more detailed discussion of this test.
As with any testing method, the results can vary depending upon how the test is carried out. […] Thus, as used in this application including the claims, any flux determination should be carried by controlling the following parameters: • 1) Apparatus—The apparatus should be a Franz Diffusion Cell. Each cell should have a cell volume of 5.4 to 5.5 ml. Ten (10) cells should be utilized per formulation (i.e. both the test formulation and the reference formulation). As is standard in the field, the results are reported as the mean. • 2) Skin—Skin samples used for both the test formulation and the reference formulation should be human cadaver skin obtained from a single donor, who is […], between the ages of 50 and 75 and is obtained from the subjects back. […] The surface area of the skin samples should be 0.635 cm^2 (internal diameter of opening of 9 mm). The donor compartment should be maintained at room temperature (see Table A for specifics). • 3) Testing—Testing should be carried out for 24 hours. Sample should be withdrawn at the initiation of testing, and 2, 4, 12, 16, and 24 hours after initiation of testing. The sample volume should be 0.5 ml. The Compound should be present at identical concentrations in both the test formulation and the reference formulation (w/v for liquids and w/w for semi-solids). This concentration should be equal to that used in the final dosage form (i.e., what is being developed for eventual human application). A dose volume of 10 μl/0.635 cm^2 should be used. • 4) Receptor Solution—0.1% (w/v) Brij-98 in Dulbecco's phosphate buffered saline, pit 6.9 (KH2PO4 14.7 mM and Na2HPO4 80.9 mM). • 5) Barrier Integrity—The barrier integrity of human cadaver donor skin is assessed to ensure that changes in flux are attributed to the formulation versus a faulty skin barrier (e.g., cut, scrape, lesion, etc). […] The receptor fluid is assayed for these compounds. […]

hair growth cycle = conditions: animal studies; topical; co-pending application 60/544,116; cited from earlier work
[2] = Table 2, vehicle 63.5:20:8:7.5% w/w EtOH/PG/CPE-215/Water
[3] = Table 2, vehicle 70:30% w/w EtOH/PG
[4] = Table 3, vehicle 60:20:20% w/w EtOH/PG/IPM
[5] = Table 3, vehicle 63.5:20:8:7.5% w/w EtOH/PG/CPE-215/Water
[6] = Table 4, vehicle 60:20:20% w/w EtOH/PG/IPM, skin 1.03-1.19 mm
[7] = Table 4, vehicle 70:20:10% w/w EtOH/PG/IPM, skin 1.03-1.19 mm

SMILES: Cn1nc(O[C@@H]2c3cc(S(=O)(=O)c4cccc(O)c4)ccc3OC(C)(C)[C@@]2(C)O)ccc1=O [Compound, 6-[[(3S,4R)-3,4-dihydro-3-hydroxy-6-[(3-hydroxyphenyl)sulfonyl]-2,2,3-trimethyl-2H-1-benzopyran-4-yl]oxy]-2-methyl-3(2H)-pyridazinone]
- Flux ([1]; Example 3, Compound 0.96% w/v in ethanol:propylene glycol:Cyclopentadecanolide:Water (63.5:20:8:7.5% w/w/w/w), skin 0.71-0.96 mm and 0.90-1.04 mm): 0.053±0.003 μg/cm^2/hr
- Flux ([1]; Example 3, Compound 0.96% w/v in reference formulation (70% ethanol:30% propylene glycol w/w), skin 0.71-0.96 mm and 0.90-1.04 mm): 0.004±0.006 μg/cm^2/hr
- Flux ([1]; Example 4, carrier ethanol:propylene glycol:Cyclopentadecanolide:Water (63.5:20:8:7.5% w/w/w/w), skin 0.71-0.96 mm and 0.90-1.04 mm): 0.022±0.007 μg/cm^2/hr
- Flux ([1]; Example 4, carrier ethanol:propylene glycol:IPM (60:20:20% w/w/w), skin 0.71-0.96 mm and 0.90-1.04 mm): 0.017±0.008 μg/cm^2/hr
- Flux ([1]; Example 5, carrier ethanol:propylene glycol:IPM (60:20:20% w/w/w), skin 1.03-1.19 mm): 0.011±0.003 μg/cm^2/hr
- Flux ([1]; Example 5, carrier ethanol:propylene glycol:IPM (70:20:10% w/w/w), skin 1.03-1.19 mm): 0.007±0.003 μg/cm^2/hr
- Flux ([1]; Example 6, Compound 1.86% w/v, carrier EtOH/PG/DMI (dimethyl isosorbide) (60:30:10% w/w)): 0.036±0.0336 μg/cm^2/hr
- Flux ([1]; Example 6, Compound 1.86% w/v, carrier EtOH/PG/Miglyol 840 (50:30:20% w/w/w)): 0.11±0.007 μg/cm^2/hr
- Flux ([1]; Example 6, Compound 1.86% w/v, carrier ethanol:propylene glycol:IPM (50:30:20% w/w/w)): 191±0.026 μg/cm^2/hr
- Skin permeation as compared with the reference formulation ([1]; FIG. 4, carrier comprising a penetration enhancer (Cyclopentadecanolide) vs reference formulation): greatly enhanced
- Mean Percentage of Radioactivity Recovered at 24 Hours, Dermis [1, 2]: 0.61%
- Mean Percentage of Radioactivity Recovered at 24 Hours, Epidermis [1, 2]: 8.50%
- Mean Percentage of Radioactivity Recovered at 24 Hours, Receptor [1, 2]: 0.56%
- Mean Percentage of Radioactivity Recovered at 24 Hours, Surface [1, 2]: 84.77%
- Mean Percentage of Radioactivity Recovered at 24 Hours, Total [1, 2]: 94.43%
- Mean Percentage of Radioactivity Recovered at 24 Hours, Dermis [1, 3]: 0.06%
- Mean Percentage of Radioactivity Recovered at 24 Hours, Epidermis [1, 3]: 2.53%
- Mean Percentage of Radioactivity Recovered at 24 Hours, Receptor [1, 3]: 0.05%
- Mean Percentage of Radioactivity Recovered at 24 Hours, Surface [1, 3]: 79.30%
- Mean Percentage of Radioactivity Recovered at 24 Hours, Total [1, 3]: 81.94%
- Mean Percentage of Radioactivity Recovered at 24 Hours, Dermis [1, 4]: 0.78%
- Mean Percentage of Radioactivity Recovered at 24 Hours, Epidermis [1, 4]: 8.04%
- Mean Percentage of Radioactivity Recovered at 24 Hours, Receptor [1, 4]: 0.14%
- Mean Percentage of Radioactivity Recovered at 24 Hours, Surface [1, 4]: 79.28%
- Mean Percentage of Radioactivity Recovered at 24 Hours, Total [1, 4]: 88.24%
- Mean Percentage of Radioactivity Recovered at 24 Hours, Dermis [1, 5]: 0.76%
- Mean Percentage of Radioactivity Recovered at 24 Hours, Epidermis [1, 5]: 8.71%
- Mean Percentage of Radioactivity Recovered at 24 Hours, Receptor [1, 5]: 0.16%
- Mean Percentage of Radioactivity Recovered at 24 Hours, Surface [1, 5]: 79.36%
- Mean Percentage of Radioactivity Recovered at 24 Hours, Total [1, 5]: 88.99%
- Mean Percentage of Radioactivity Recovered at 24 Hours, Dermis [1, 6]: 1.00%
- Mean Percentage of Radioactivity Recovered at 24 Hours, Epidermis [1, 6]: 12.00%
- Mean Percentage of Radioactivity Recovered at 24 Hours, Receptor [1, 6]: 0.07%
- Mean Percentage of Radioactivity Recovered at 24 Hours, Surface [1, 6]: 73.00%
- Mean Percentage of Radioactivity Recovered at 24 Hours, Total [1, 6]: 86.1%
- Mean Percentage of Radioactivity Recovered at 24 Hours, Dermis [1, 7]: 1.04%
- Mean Percentage of Radioactivity Recovered at 24 Hours, Epidermis [1, 7]: 12.27%
- Mean Percentage of Radioactivity Recovered at 24 Hours, Receptor [1, 7]: 0.10%
- Mean Percentage of Radioactivity Recovered at 24 Hours, Surface [1, 7]: 75.24%
- Mean Percentage of Radioactivity Recovered at 24 Hours, Total [1, 7]: 88.66%
- Effect on the hair growth cycle (hair growth cycle): alters the hair growth cycle by inducing anagen
